According to US11254722B2, “Recombinant proteins and uses thereof” (ACADEMIA SINICA, priority 2017, dated 2022):

Key:
[1] = target: T1, nrgEGF (amino acids Thr176-Lys246 of neuregulin-beta 1) (Homo sapiens, UniProt Q02297); experiment: Biacore binding to nrgEGF
T1 construct: Thr176-Lys246 of neuregulin-beta 1; purchased R&D Sciences or SinoBiologicals
T1 sequence (Q02297 176-246 isoform Q02297-6): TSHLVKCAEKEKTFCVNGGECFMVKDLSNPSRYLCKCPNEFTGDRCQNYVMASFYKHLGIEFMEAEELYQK
Procedure: Biacore binding was performed at David Myszka's laboratory at the University of Utah or at the Genomic Research Center at Academia Sinica. Surfaces of binding protein chimera were made via chemical immobilization on a CM4 chip using standard amine coupling chemistry. […] Excess surface carboxyl activated sites on all four flow cells was blocked using the doubly positively charged species ethylenediamine. Binding experiments (but not immobilizations) in HBS-P (10 mM HEPES pH 7.4, 150 mM NaCl, 0.05% P20), The HBS-P was supplemented with BSA at 0.2 mg/mL, or HBS-P was supplemented with 500 mM NaCl (650 mM NaCl, final concentration). Analytes were also reconstituted in the corresponding buffer. All experiments were performed at 25° C. 1/150 dilutions of phosphoric acid were used to regenerate IGFBP3-Fc surfaces and a sequence of 3 M MgCl2 followed by 5 M GuCl was used to regenerate surfaces immobilized with growth factor. Dissociation constants reported below used immobilized binding protein unless noted. Differences between binding constants may be expected between growth factor immobilization and chimera immobilization.
In this example, erbB4 domain 1 was attached to the N-terminus of the recombinant IGFBP3-Fc or the recombinant IGFBP3-v1v2-Fc.

[2] = system: MCF-7 breast cancer cells; experiment: MCF-7 proliferation assay; format: cell-based
In short: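 MCF-7 cells seeded at 1,000–6,000/well in serum-free DMEM/F12 with 0.2% BSA and 10 ug/ml transferrin; proliferation induced by growth factors (IGF-1, IGF-2, EGF, TGF-a, Nrgbx, b-FGF, amphiregulin); test chimeras added at plating or 16–20 h later. Growth read after 3–4 days by Alamar blue fluorescence (544/590 nm, 4–6 h).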

[3] = system: HUVEC cells; experiment: HUVEC proliferation assay; format: cell-based; conditions: HGF-induced, HUVEC
In short: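 HUVEC, 5,000 per well, plated on poly-L-lysine in M199 with 1% FBS and HEPES. After 3 to 4 days of culture, growth read by Alamar blue incubation for 4 to 6 hours, fluorescence (RFU) at 544/590 nm.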

[4] = system: 3t3; experiment: 3t3 proliferation assay; format: cell-based; conditions: PDGF-AB-induced
Procedure: MCF-7 cells (a breast cancer cell line) were maintained in MEM (GIBCO) plus insulin and NEAA and 10% FBS (Hyclone).
(§1) For the proliferation assay, cells except for HUVEC were seeded at a density of 1,000 to 6,000 in 96 wells in an assay buffer of DMEM/F12 plus 0.2% BSA and 10 ug/ml transferrin. Chemical inhibitors were added after 16-20 hours after plating; IGF-1 or other growth factors or test chimeras in assay buffer were added at the time of plating or 16-20 hours after plating. 5,000 HUVEC ells were plated in poly-L-lysine coated 96 wells in M199 with 1%/FBS and HEPES. After 3 to 4 days of culture, growth was determined by incubating cells with Alamar blue for 4 to 6 hours and then the fluorescence (RFU) at 544/590 nm was read. For long term proliferation assays, cells were plated in the growth media with 5% or 10% FBS at densities of 500 to 10,000 cells per cm^2 growth area and grown for 7 to 21 days. Inhibitors and effectors were added 1-4 days after plating. Cells were exposed to cisplatin or gemcitabine for two days. Medium was renewed twice weekly. At completion, cells were fixed and then stained with Giemsa.

[5] = system: cancer cells; experiment: In vitro proliferation of cancer cells stimulated by growth factors (Table 8); format: cell-based
Procedure: as §1
The BP3-fc construct inhibited the proliferation of cancer cells that had been stimulated by IGF-1, IGF-2, neuregulin, HGF, and bFGF.

[6] = target: T2, VEGF (Homo sapiens, UniProt P15692); experiment: In vitro proliferation stimulated by VEGF (Table 8); format: cell-based
T2 construct: purchased R&D Systems
T2 sequence (P15692 27-191 isoform P15692-4): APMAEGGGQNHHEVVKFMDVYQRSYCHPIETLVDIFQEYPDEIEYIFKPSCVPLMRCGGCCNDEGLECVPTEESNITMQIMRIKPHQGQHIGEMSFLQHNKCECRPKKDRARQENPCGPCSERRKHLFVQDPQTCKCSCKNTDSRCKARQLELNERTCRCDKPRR
Procedure: as §1
(§2) The BP3-VEGF-trap-fc (including the IGFBP3 domains, the VEGFR1 domain 2 and VEGFR2 domain 3 (VEGF-trap (22)), and human immunoglobulin Fc region) broadened the binding to include VEGF-A, VEGF-B, and placental growth factor (PIGF). This BP3-VEGF-trap chimera could inhibit the proliferation stimulated by IGF-1, IGF-2, neuregulin, PDGF-BB, HGF, bFGF, VEGF-A, and PIGF (see, Table 8).

[7] = target: T3, PIGF (Homo sapiens, UniProt P49763); experiment: In vitro proliferation stimulated by PIGF (Table 8); format: cell-based
T3 construct: purchased R&D Sciences or SinoBiologicals
T3 sequence (P49763 19-221): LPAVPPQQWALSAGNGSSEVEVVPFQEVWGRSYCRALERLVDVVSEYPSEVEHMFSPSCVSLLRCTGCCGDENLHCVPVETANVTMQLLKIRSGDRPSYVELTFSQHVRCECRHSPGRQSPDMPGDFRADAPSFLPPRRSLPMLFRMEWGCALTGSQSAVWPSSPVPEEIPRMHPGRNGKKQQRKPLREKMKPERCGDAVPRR
Procedure: as §1, §2

[8] = Pharmacokinetics in mice, serum by Fc ELISA; format: in vivo
Procedure: Grenier high binding ELISA plates were coated with 1 ug/ml goat anti-human Fc antibody (Jackson Immunoresearch) in PBS overnight, and then blocked with Assay Buffer (Invitrogen). Plates were incubated for 2 hours with Chimera or human Fc (Jackson Immunoresearch) as standard; followed by HRP-conjugated anti-human Fc antibody (Jackson Immunoresearch) for 60 minutes. HRP substrate, tetramethyl benzidine, was added; the reaction was stopped with 2 N […], and then the plate was read at 450 nm.
Mice were injected subcutaneously with 100 ug chimera 56662 (4 mg/kg). Two mice per group were used. Serum samples were taken at 0, 4, 24, 48, 72 hours after injection. The concentration of 56662 in serum was determined by use of the hu fc ELISA.
Serum half-life was measured in mice. 100 μg IGFBP3-Fc or 56662 (4 mg/kg) was injected subcutaneously and mouse serum was harvested at 0, 4, 24, 48, 72 hours after injection. Chimera concentration in serum was measured with the Fc ELISA. At 24 hours, the concentration of 56662 was over 2 μg/ml (FIG. 28), and the serum half-time was estimated to be about 43 hours.

## 56662: IGFBP3-Fc, SEQ ID NO: 7; unmodified IGFBP3 fused with the IgG Fc portion [compound 56662]
[1]
  Kd nrgEGF: No binding
[2]; EGF-induced, MCF-7 cells
  In vitro inhibition of proliferation, EGF: yes
[2]; IGF-1-induced, MCF-7 cells
  In vitro inhibition of proliferation, IGF-1: yes
[2]; IGF-2-induced, MCF-7 cells
  In vitro inhibition of proliferation, IGF-2: yes
[2]; TGF-α-induced, MCF-7 cells
  In vitro inhibition of proliferation, TGF-α: yes
[2]; VEGF-165, MCF-7 cells per footnote
  In vitro inhibition of proliferation, VEGF-165: no
[2]; bFGF-induced, MCF-7 cells
  In vitro inhibition of proliferation, bFGF: yes
[2]; fetal bovine serum, FIG. 1, FIG. 4
  inhibition of FBS-induced proliferation of MCF-7: inhibited
[2]; high concentrations of 56662, FIG. 2
  inhibition of proliferation induced by long-R3-IGF-1: can inhibit
[2]; neuregulin-induced, MCF-7 cells
  In vitro inhibition of proliferation, neuregulin: yes
[3]
  In vitro inhibition of proliferation, HGF: yes (hep3B, HUVEC)
[4]
  In vitro inhibition of proliferation, PDGF-AB: yes (3t3)
[5]
  inhibition of proliferation stimulated by bFGF: inh
[6]
  inhibition of proliferation stimulated by VEGF: no
[7]
  inhibition of proliferation stimulated by PIGF: no
[8]; estimated
  serum half-life: 20 to 40 h
[8]; mice, 100 μg (4 mg/kg) subcutaneously, FIG. 28
  concentration in serum at 24 hours: over 2 μg/ml
[8]; mice, 100 μg (4 mg/kg) subcutaneously, estimated
  serum half-time: about 43 hours
